Results reported in ChEMBL document CHEMBL3885881, “DrugMatrix”.

Organism: Rattus norvegicus
Assay: DrugMatrix - Regimen: Daily Repeat
Format: toxicity, organism-based, Sprague-Dawley
Parameters: regimen Daily Repeat, gender Male, age 6-8 weeks
Details: in vivo, ip, route intraperitoneal, vehicle 100 % SALINE; for ABSOLUTE BASOPHIL / ABSOLUTE EOSINOPHIL / ABSOLUTE LYMPHOCYTE / ABSOLUTE MONOCYTE / ABSOLUTE SEGMENTED NEUTROPHIL / BASOPHIL / EOSINOPHIL / ERYTHROCYTE COUNT / HEMATOCRIT / HEMOGLOBIN / LEUKOCYTE COUNT / LYMPHOCYTE / MEAN CORPUSCULAR HEMOGLOBIN / MEAN CORPUSCULAR HEMOGLOBIN CONCENTRATION / MEAN CORPUSCULAR VOLUME / MONOCYTE / NEUTROPHIL / PLATELET COUNT: tissue Blood; for ALANINE AMINOTRANSFERASE / ALBUMIN / ASPARTATE AMINOTRANSFERASE / BLOOD UREA NITROGEN / CHOLESTEROL / CREATINE PHOSPHOKINASE / CREATININE / GLUCOSE / LACTATE DEHYDROGENASE / LIPASE / POTASSIUM / SODIUM / TOTAL BILIRUBIN / TOTAL PROTEIN / URIC ACID / ALKALINE PHOSPHATASE / CHLORIDE / PHOSPHORUS: tissue Plasma
[1] = 0 mg/kg, 120 h, dose level Control, time 5 day
[2] = 0 mg/kg, […], dose level Control, time 14 day
[3] = 0 mg/kg, […], dose level Control, time 28 day
[4] = 5 mg/kg, 120 h, dose level High, time 5 day
[5] = 5 mg/kg, […], dose level High, time 14 day
[6] = 5 mg/kg, […], dose level High, time 28 day

## CARBOPLATIN
[1]
  ABSOLUTE BASOPHIL: 32 cells/µL
  ABSOLUTE EOSINOPHIL: 110 cells/µL
  ABSOLUTE LYMPHOCYTE: 6630 cells/µL
  ABSOLUTE MONOCYTE: 140 cells/µL
  ABSOLUTE SEGMENTED NEUTROPHIL: 1170 cells/µL
  BASOPHIL: 0.38%
  EOSINOPHIL: 1.28%
  ERYTHROCYTE COUNT: 7.45 x10E6/uL
  HEMATOCRIT: 45.74%
  HEMOGLOBIN: 14.72 G/DL
  LEUKOCYTE COUNT: 8.11 x10E3/uL
  LYMPHOCYTE: 81.3%
  MEAN CORPUSCULAR HEMOGLOBIN: 19.76 pg
  MEAN CORPUSCULAR HEMOGLOBIN CONCENTRATION: 32.16 G/DL
  MEAN CORPUSCULAR VOLUME: 61.38 fL
  MONOCYTE: 1.76%
  NEUTROPHIL: 14.9%
  PLATELET COUNT: 1322.4 x10E3/uL
  ALANINE AMINOTRANSFERASE: 25.8 u/L
  ALBUMIN: 3.64 G/DL
  ASPARTATE AMINOTRANSFERASE: 81.4 u/L
  BLOOD UREA NITROGEN: 14.4 mg/dL
  CHOLESTEROL: 69.2 mg/dL
  CREATINE PHOSPHOKINASE: 303.2 u/L
  CREATININE: 0.56 mg/dL
  GLUCOSE: 125.4 mg/dL
  LACTATE DEHYDROGENASE: 105.4 u/L
  LIPASE: 22.4 u/L
  POTASSIUM: 5.52 MEQ/L
  SODIUM: 147 MEQ/L
  TOTAL BILIRUBIN: 0.2 mg/dL
  TOTAL PROTEIN: 6.1 G/DL
  URIC ACID: 1.06 mg/dL
[2]
  ABSOLUTE BASOPHIL: 130 cells/µL
  ABSOLUTE EOSINOPHIL: 140 cells/µL
  ABSOLUTE LYMPHOCYTE: 13500 cells/µL
  ABSOLUTE MONOCYTE: 400 cells/µL
  ABSOLUTE SEGMENTED NEUTROPHIL: 2330 cells/µL
  BASOPHIL: 0.72%
  EOSINOPHIL: 0.86%
  ERYTHROCYTE COUNT: 7.74 x10E6/uL
  HEMATOCRIT: 45.98%
  LEUKOCYTE COUNT: 16.61 x10E3/uL
  LYMPHOCYTE: 81.34%
  MEAN CORPUSCULAR HEMOGLOBIN: 18 pg
  MEAN CORPUSCULAR HEMOGLOBIN CONCENTRATION: 30.22 G/DL
  MEAN CORPUSCULAR VOLUME: 59.4 fL
  MONOCYTE: 2.46%
  NEUTROPHIL: 14.14%
  PLATELET COUNT: 1445.5 x10E3/uL
  ALANINE AMINOTRANSFERASE: 31.6 u/L
  ALBUMIN: 3.66 G/DL
  ALKALINE PHOSPHATASE: 228.6 u/L
  ASPARTATE AMINOTRANSFERASE: 79.6 u/L
  BLOOD UREA NITROGEN: 11.2 mg/dL
  CHLORIDE: 107 MEQ/L
  CHOLESTEROL: 57 mg/dL
  CREATININE: 0.5 mg/dL
  GLUCOSE: 124.4 mg/dL
  LACTATE DEHYDROGENASE: 106.4 u/L
  LIPASE: 24.4 u/L
  PHOSPHORUS: 10.52 mg/dL
  POTASSIUM: 6.34 MEQ/L
  SODIUM: 149.2 MEQ/L
  TOTAL BILIRUBIN: 0.2 mg/dL
  TOTAL PROTEIN: 6.48 G/DL
  URIC ACID: 0.94 mg/dL
[3]
  ABSOLUTE BASOPHIL: 91 cells/µL
  ABSOLUTE EOSINOPHIL: 110 cells/µL
  ABSOLUTE LYMPHOCYTE: 9910 cells/µL
  ABSOLUTE MONOCYTE: 210 cells/µL
  ABSOLUTE SEGMENTED NEUTROPHIL: 1560 cells/µL
  BASOPHIL: 0.77%
  EOSINOPHIL: 0.92%
  ERYTHROCYTE COUNT: 8.21 x10E6/uL
  HEMATOCRIT: 47.53%
  HEMOGLOBIN: 15.65 G/DL
  LEUKOCYTE COUNT: 11.91 x10E3/uL
  LYMPHOCYTE: 83.34%
  MEAN CORPUSCULAR HEMOGLOBIN: 19.07 pg
  MEAN CORPUSCULAR HEMOGLOBIN CONCENTRATION: 32.93 G/DL
  MEAN CORPUSCULAR VOLUME: 57.9 fL
  MONOCYTE: 1.68%
  NEUTROPHIL: 12.97%
  PLATELET COUNT: 1323.8 x10E3/uL
  ALANINE AMINOTRANSFERASE: 30 u/L
  ALBUMIN: 3.71 G/DL
  ALKALINE PHOSPHATASE: 186.8 u/L
  ASPARTATE AMINOTRANSFERASE: 78.2 u/L
  BLOOD UREA NITROGEN: 14.2 mg/dL
  CHOLESTEROL: 44.9 mg/dL
  CREATINE PHOSPHOKINASE: 334.3 u/L
  CREATININE: 0.6 mg/dL
  GLUCOSE: 147.2 mg/dL
  LACTATE DEHYDROGENASE: 123.1 u/L
  LIPASE: 9.6 u/L
  PHOSPHORUS: 10.01 mg/dL
  POTASSIUM: 6.57 MEQ/L
  SODIUM: 149.5 MEQ/L
  TOTAL BILIRUBIN: 0.21 mg/dL
  TOTAL PROTEIN: 6.66 G/DL
  URIC ACID: 1.26 mg/dL
[4]
  ABSOLUTE BASOPHIL: 26 cells/µL
  ABSOLUTE EOSINOPHIL: 44 cells/µL
  ABSOLUTE LYMPHOCYTE: 5500 cells/µL
  ABSOLUTE MONOCYTE: 120 cells/µL
  ABSOLUTE SEGMENTED NEUTROPHIL: 520 cells/µL
  BASOPHIL: 0.4%
  EOSINOPHIL: 0.72%
  ERYTHROCYTE COUNT: 7.51 x10E6/uL
  HEMATOCRIT: 46.82%
  LEUKOCYTE COUNT: 6.24 x10E3/uL
  LYMPHOCYTE: 88.18%
  MEAN CORPUSCULAR HEMOGLOBIN: 20.08 pg
  MEAN CORPUSCULAR HEMOGLOBIN CONCENTRATION: 32.18 G/DL
  MONOCYTE: 2.02%
  NEUTROPHIL: 8.22%
  PLATELET COUNT: 1572.2 x10E3/uL
  ALANINE AMINOTRANSFERASE: 21.4 u/L
  ALBUMIN: 3.62 G/DL
  ALKALINE PHOSPHATASE: 214.8 u/L
  ASPARTATE AMINOTRANSFERASE: 70.6 u/L
  BLOOD UREA NITROGEN: 14.6 mg/dL
  CHLORIDE: 107.4 MEQ/L
  CHOLESTEROL: 59.4 mg/dL
  CREATINE PHOSPHOKINASE: 192.6 u/L
  CREATININE: 0.54 mg/dL
  GLUCOSE: 139.6 mg/dL
  LACTATE DEHYDROGENASE: 65 u/L
  LIPASE: 27.2 u/L
  PHOSPHORUS: 11.28 mg/dL
  POTASSIUM: 5.36 MEQ/L
  SODIUM: 146.8 MEQ/L
  TOTAL BILIRUBIN: 0.18 mg/dL
  TOTAL PROTEIN: 6.16 G/DL
  URIC ACID: 1.16 mg/dL
[5]
  ABSOLUTE BASOPHIL: 130 cells/µL
  ABSOLUTE EOSINOPHIL: 88 cells/µL
  ABSOLUTE LYMPHOCYTE: 8780 cells/µL
  ABSOLUTE MONOCYTE: 260 cells/µL
  ABSOLUTE SEGMENTED NEUTROPHIL: 1370 cells/µL
  BASOPHIL: 1.28%
  EOSINOPHIL: 0.82%
  ERYTHROCYTE COUNT: 7.59 x10E6/uL
  HEMATOCRIT: 44.92%
  LEUKOCYTE COUNT: 10.68 x10E3/uL
  LYMPHOCYTE: 81.92%
  MEAN CORPUSCULAR HEMOGLOBIN: 19.52 pg
  MEAN CORPUSCULAR HEMOGLOBIN CONCENTRATION: 32.96 G/DL
  MONOCYTE: 2.38%
  NEUTROPHIL: 13.02%
  PLATELET COUNT: 1274 x10E3/uL
  ALANINE AMINOTRANSFERASE: 30.2 u/L
  ALBUMIN: 3.48 G/DL
  ALKALINE PHOSPHATASE: 147.2 u/L
  ASPARTATE AMINOTRANSFERASE: 92.8 u/L
  BLOOD UREA NITROGEN: 12.2 mg/dL
  CHOLESTEROL: 54 mg/dL
  CREATINE PHOSPHOKINASE: 251.2 u/L
  CREATININE: 0.46 mg/dL
  GLUCOSE: 105.2 mg/dL
  LACTATE DEHYDROGENASE: 123.4 u/L
  LIPASE: 31.2 u/L
  PHOSPHORUS: 8.36 mg/dL
  POTASSIUM: 5.68 MEQ/L
  SODIUM: 149.4 MEQ/L
  TOTAL BILIRUBIN: 0.22 mg/dL
  TOTAL PROTEIN: 6.24 G/DL
  URIC ACID: 0.6 mg/dL
[6]
  ABSOLUTE BASOPHIL: 170 cells/µL
  ABSOLUTE EOSINOPHIL: 89 cells/µL
  ABSOLUTE LYMPHOCYTE: 9490 cells/µL
  ABSOLUTE MONOCYTE: 290 cells/µL
  ABSOLUTE SEGMENTED NEUTROPHIL: 1640 cells/µL
  BASOPHIL: 1.3%
  EOSINOPHIL: 0.78%
  ERYTHROCYTE COUNT: 8.56 x10E6/uL
  HEMATOCRIT: 50.05%
  LEUKOCYTE COUNT: 11.75 x10E3/uL
  LYMPHOCYTE: 81.13%
  MEAN CORPUSCULAR HEMOGLOBIN: 19.05 pg
  MEAN CORPUSCULAR HEMOGLOBIN CONCENTRATION: 32.58 G/DL
  MEAN CORPUSCULAR VOLUME: 58.46 fL
  MONOCYTE: 2.43%
  NEUTROPHIL: 13.81%
  PLATELET COUNT: 1331.9 x10E3/uL
  ALANINE AMINOTRANSFERASE: 36.4 u/L
  ALBUMIN: 3.74 G/DL
  ALKALINE PHOSPHATASE: 135 u/L
  ASPARTATE AMINOTRANSFERASE: 95.6 u/L
  BLOOD UREA NITROGEN: 13.2 mg/dL
  CHLORIDE: 106.6 MEQ/L
  CHOLESTEROL: 55.8 mg/dL
  CREATINE PHOSPHOKINASE: 186.2 u/L
  CREATININE: 0.51 mg/dL
  GLUCOSE: 115.1 mg/dL
  LACTATE DEHYDROGENASE: 98.7 u/L
  LIPASE: 8.62 u/L
  PHOSPHORUS: 9.03 mg/dL
  POTASSIUM: 6.36 MEQ/L
  SODIUM: 150.9 MEQ/L
  TOTAL BILIRUBIN: 0.22 mg/dL
